Converted amounts (≈) assume the structure as drawn. Where two headings read alike, the source gives them in different places.
What was measured:
[1] = tested on: M. gallisepticum S6 strain; test: Susceptibility assay, agar dilution (MIC, MIC99, MPC); assay type: cell-based, Mycoplasma gallisepticum; design: MPC: unit not given here
Experimental: The minimum inhibitory concentration (MIC) of amphenmulin against M. gallisepticum S6 strain was determined with reference to the protocols previously reported ([16], [17]). The broth microdilution method was performed using 96-well plates to achieve a final titer of approximately 10^7 colony-forming units (CFU)/mL of M. gallisepticum in each well. The final concentrations tested of amphenmulin ranged from 0.488 × 10^−3 to 0.125 µg/mL. Concurrently, a growth control (without drug), an end-point control (blank medium), and a sterile control (sterile broth) were also implemented. […] For the agar dilution method, M. gallisepticum was inoculated and cultured on agar plates containing a twofold dilution series of amphenmulin concentrations, and the MIC was the lowest drug concentration that inhibited growth. Additionally, following the procedure of broth microdilution, the initial culture before incubation and the samples from wells where the color remained unchanged after 48 h of incubation were subjected to 10-fold serial dilutions. Each dilution sample (10 µL) was then plated on drug-free agar for colony counting.
We also determined the minimum concentration inhibiting colony formation by 99% (MIC99) of amphenmulin against the S6 strain by slightly modifying the existing methods ([18], [19]). […] By counting the colony growth of M. gallisepticum inoculated on these drug-containing agar plates and performing linear regression with drug concentration, we calculated the amphenmulin concentration that inhibits 99% growth of the S6 strain.
Furthermore, we determined the mutant prevention concentration (MPC) of amphenmulin against the S6 strain by agar dilution method ([20]). Briefly, M. gallisepticum at exponential phase was enriched to ≥10^9 CFU/mL by centrifugation and cultured as described above. The lowest drug concentration that inhibited mycoplasma growth in the agar plate was determined as the primary MPC (MPCpr), and the determination was repeated after linearly reducing the MPCpr to 0.5 MPCpr at 10% drug concentration. The final mycoplasma-free growth concentration was the MPC. All the experiments of the above pharmacodynamic studies were conducted in triplicate.

[2] = tested on: M. gallisepticum strain S6; test: Static time-kill curves and Sigmoid Emax fit of kill rate; assay type: cell-based, Mycoplasma gallisepticum; conditions: for EC50: Mycoplasmoides gallisepticum, read-out: EC50 (concentration at half-maximal kill rate); for decrease of mycoplasma counts / type of effect: static; for decrease of mycoplasma counts: within 48 h
Experimental: Based on the MIC value from broth microdilution method, 7 mL blank medium, 0.2 mL amphenmulin solution, and 0.8 mL M. gallisepticum suspension were taken into 10-mL Celine bottles to make the final mycoplasma count of 10^7 CFU/mL, as well as final concentrations of amphenmulin of 1, 2, 4, 6, 8, 16, 32, and 64 MIC, respectively. Growth control (without drug) and negative control (blank medium) were also set up for culture. Then at 0, 6, 9, 12, 24, 36, and 48 h, 100 µL of each culture was taken for counting using the aforementioned method, with a lower limit of 100 CFU/mL. The experiment was repeated three times.
The efficacy of amphenmulin against M. gallisepticum was measured by the kill rate per unit of time. Considering the growth of M. gallisepticum observed in preliminary experiments, this study selected seven time periods of 0–24, 0–36, 0–48, 6–24, 6–36, 6–48, and 12–48 h to calculate the kill rates of amphenmulin. The Sigmoid Emax model in Phoenix was used to fit the relationship between mean kill rate and drug concentration, which is shown below:
E, kill rate of amphenmulin against M. gallisepticum within a period; E0, change rate of M. gallisepticum in the control group (without drug); Emax, maximum kill rate within a period; Ce, concentration of amphenmulin; EC50, drug concentration at half-maximal kill rate; N, Hill coefficient, reflecting the slope of the kill rate–concentration curve.

M. gallisepticum = test: PK/PD integration, inhibitory Sigmoid Emax model; assay type: cell-based, Mycoplasma gallisepticum; conditions: for Emax: inhibitory Emax model
Experimental: Phoenix software was used to analyze the in vitro concentration–time data of amphenmulin and calculate the AUC and peak concentration (Cmax), which were combined with MIC to obtain PK/PD parameters. Concurrently, the anti-mycoplasma effect was derived from the dynamic time–kill curve, which was analyzed with the PK/PD index using an inhibitory Sigmoid Emax model as follows:
E=E0−(E0−Emax)×CeN/EC50N+CeN
E, anti-mycoplasma effect, the change in M. gallisepticum counts during 24 h of cultivation; E0, M. gallisepticum change in control (without drug); Emax, maximal effect produced by amphenmulin against M. gallisepticum during 24 h; Ce, PK/PD parameters (AUC/MIC or Cmax/MIC); EC50, the Ce value needed to produce 50% of maximal effect; N, Hill coefficient, the slope of the fitted curve.

[3] = design: method as in PMID 29722184, PMID 32079232; conditions: cited from earlier work
[4] = tested on: methicillin-resistant Staphylococcus aureus (MRSA); conditions: cited from earlier work
[5] = Mycoplasmoides gallisepticum, S6STRAIN

C=C[C@]1(C)C[C@@H](OC(=O)CSc2ccccc2N)[C@]2(C)[C@H](C)CC[C@]3(CCC(=O)[C@H]32)[C@@H](C)[C@@H]1O [amphenmulin, 22-(2-amino-phenylsulfanyl)-22-deoxypleuromutilin]
MPC relative to MIC99 [1]: about 6.5 times | MIC [1, 5]: 0.0078 µg/mL (≈ 0.0161 µM) | MIC99 [1, 5]: 0.0077 µg/mL (≈ 0.0159 µM) | MPC ([1]; agar dilution, inoculum 10^9 CFU/mL): 0.0500 | mutation selection window (MSW) ([1]; between MIC99 and MPC): 0.77 × 10^−2–0.05 µg/mL | EC50 ([2]; S6, period 0–24 h): 0.0325 µg/mL (≈ 0.0669 µM) | EC50 ([2]; S6, period 0–36 h): 0.0914 µg/mL (≈ 0.188 µM) | EC50 ([2]; S6, period 0–48 h): 0.913 µg/mL (≈ 1.88 µM) | EC50 ([2]; S6, period 6–24 h): 0.0082 µg/mL (≈ 0.0169 µM) | EC50 ([2]; S6, period 6–36 h): 0.0053 µg/mL (≈ 0.0109 µM) | EC50 ([2]; S6, period 6–48 h): 0.0526 µg/mL (≈ 0.108 µM) | EC50 ([2]; S6, period 12–48 h): 0.524 µg/mL (≈ 1.08 µM) | Emax (maximum kill rate) ([2]; period 0–24 h): 0.1261 h⁻¹ | Emax (maximum kill rate) ([2]; period 0–36 h): 0.1817 h⁻¹ | Emax (maximum kill rate) ([2]; period 0–48 h): 0.3277 h⁻¹ | Emax (maximum kill rate) ([2]; period 6–24 h): 0.0805 h⁻¹ | Emax (maximum kill rate) ([2]; period 6–36 h): 0.0821 h⁻¹ | Emax (maximum kill rate) ([2]; period 6–48 h): 0.1743 h⁻¹ | Emax (maximum kill rate) ([2]; period 12–48 h): 0.2880 h⁻¹ | decrease of mycoplasma counts ([2]; 1 MIC): 0.44 Log10CFU/mL | type of effect ([2]; 2–32 MIC): bacteriostatic effect | decrease of mycoplasma counts ([2]; 2–32 MIC): 0.57–2.7 Log10CFU/mL | type of effect ([2]; 64 MIC): bactericidal effect | decrease of mycoplasma counts ([2]; 64 MIC): 3.85 Log10CFU/mL | AUC24 h/MIC target value (M. gallisepticum; for a decrease of 1 Log10CFU/mL of M. gallisepticum): 904.05 h | Emax (M. gallisepticum; index AUC24 h/MIC): −2.4214 Log10CFU/mL | Emax (M. gallisepticum; index Cmax/MIC): −3.3571 Log10CFU/mL | acute toxicity [3]: practically non-toxic | antibacterial activity against MRSA compared with tiamulin [4]: better antibacterial activity | static kill curve against MRSA, character of effect [4]: more time-dependent tendency and bacteriostatic effects
